Data reported in US20240417428A1, “POLYPEPTIDE FOR INHIBITING TRPM8 AND USE THEREOF” (ZHEJIANG UNIVERSITY, priority 2021, published 2024).

Legend:
TRPM8 [1] = biological target: T1, TRPM8 (Mus musculus, UniProt Q8R4D5); assay: Inside-out single-channel recording of menthol-activated TRPM8 at +80 mV; assay type: cell-based; design: expressed in transfected cells; host or cells: HEK293T; settings: saturating menthol (1 mM) alone
Method: (§1) HEK293T cells were cultured in Dulbecco's modified Eagle culture medium under a 37° C., 5% CO2 environment, 10% fetal bovine serum, penicillin (100 U/mL), and streptomycin ([…]) was needed to add into the culture medium. Transient transfection was conducted by using Lipo 2000 (Invitrogen) transfection kit and following the instruction manual.
(§2) Electrophysiological experiment recordings were performed on the cells within 24˜48 h of transient transfections. Specifically, single channel electrophysiological recordings were performed within 8 h after transfection.
(§3) Measurement of the cell currents was respectively performed in the whole-cell recording mode, inside-out recording mode or outside-out recording mode with a HEKA EPC10 amplifier. In the whole cell electrophysiological recordings, glass microelectrodes made of borosilicate material were fire-polished to a original electrode resistance of about 3-6 MΩ. Serial resistance was compensated by 60%. The whole cell electrophysiological recordings were performed at ±80 mV. For single channel electrophysiological recordings, glass microelectrodes were fire-polished to a higher resistance of 6-8 MΩ2. Current signal was sampled at 10 kHz and filtered at 2.9 kHz. Membrane potential of the cell membrane would be clamped at +80 mV. All electrophysiological recordings were performed at room temperature (22° C.) (the maximum variation is 1° C.).
There were different bath and pipette solutions prepared for different ion channels current measurement. For ion channels such as TRPM8, TRPV1, TRPV2, TRPV3 and TRPA1, the formula of the bath and pipette solutions was: 130 mM NaCl, 0.2 mM EDTA and 3 mM HEPES, pH=7.2. For the current measurement of TRPM4 ion channel, the formula of the bath solution was: 130 mM NaCl and 3 mM HEPES, pH=7.2, and the formula of the pipette solution was: 500 μM CaCl2), 130 mM NaCl and 3 mM HEPES, pH=7.2. For the current measurement of TRPM2 ion channel, the formula of the bath solution was: 147 mM NaCl, 2 mM KCl, 1 mM MgCl2, 10 mM HEPES, 2 mM CaCl2) 13 mM Glucose, pH=7.4, and the formula of the pipette solution was: 147 mM NaCl, 1 mM MgCl2, 10 mM HEPES, pH=7.4. For the current measurement of Nav1.5, Nav1.7 ion channels, the formula of the bath solution was: 140 mM NaCl, 3 mM KCl, 1 mM MgCl2, 1 mM CaCl2), 10 mM HEPES, pH=7.2 and the formula of the pipette solution was: 140 mM CsF, 1 mM EGTA, 10 mM NaCl, 10 mM MgCl2, 3 mM KCl, pH=7.2. To evoke sodium channel current, the membrane potential was increased from −80 mV to +10 mV.
A rapid solution changer with a gravity-driven perfusion system (RSC-200, BioLogic) was used to rapidly perfuse specific solutions into the cells to be tested. Each solution was delivered through a separate tube so that there is no mixing of solutions. The glass microelectrode with a membrane patch was placed directly below the outlet of the perfusion tube during the electrophysiology recordings.

TRPM8 [2] = biological target: T1, TRPM8; assay: Whole-cell electrophysiological recording, menthol-activated TRPM8 in transfected HEK293T cells; assay type: cell-based; design: expressed in transfected cells; host or cells: HEK293T; settings: negative control peptide
Method: as §1, §2
as §3, with “C.). […]” for “C.).”

T1 sequence (Q8R4D5 whole entry): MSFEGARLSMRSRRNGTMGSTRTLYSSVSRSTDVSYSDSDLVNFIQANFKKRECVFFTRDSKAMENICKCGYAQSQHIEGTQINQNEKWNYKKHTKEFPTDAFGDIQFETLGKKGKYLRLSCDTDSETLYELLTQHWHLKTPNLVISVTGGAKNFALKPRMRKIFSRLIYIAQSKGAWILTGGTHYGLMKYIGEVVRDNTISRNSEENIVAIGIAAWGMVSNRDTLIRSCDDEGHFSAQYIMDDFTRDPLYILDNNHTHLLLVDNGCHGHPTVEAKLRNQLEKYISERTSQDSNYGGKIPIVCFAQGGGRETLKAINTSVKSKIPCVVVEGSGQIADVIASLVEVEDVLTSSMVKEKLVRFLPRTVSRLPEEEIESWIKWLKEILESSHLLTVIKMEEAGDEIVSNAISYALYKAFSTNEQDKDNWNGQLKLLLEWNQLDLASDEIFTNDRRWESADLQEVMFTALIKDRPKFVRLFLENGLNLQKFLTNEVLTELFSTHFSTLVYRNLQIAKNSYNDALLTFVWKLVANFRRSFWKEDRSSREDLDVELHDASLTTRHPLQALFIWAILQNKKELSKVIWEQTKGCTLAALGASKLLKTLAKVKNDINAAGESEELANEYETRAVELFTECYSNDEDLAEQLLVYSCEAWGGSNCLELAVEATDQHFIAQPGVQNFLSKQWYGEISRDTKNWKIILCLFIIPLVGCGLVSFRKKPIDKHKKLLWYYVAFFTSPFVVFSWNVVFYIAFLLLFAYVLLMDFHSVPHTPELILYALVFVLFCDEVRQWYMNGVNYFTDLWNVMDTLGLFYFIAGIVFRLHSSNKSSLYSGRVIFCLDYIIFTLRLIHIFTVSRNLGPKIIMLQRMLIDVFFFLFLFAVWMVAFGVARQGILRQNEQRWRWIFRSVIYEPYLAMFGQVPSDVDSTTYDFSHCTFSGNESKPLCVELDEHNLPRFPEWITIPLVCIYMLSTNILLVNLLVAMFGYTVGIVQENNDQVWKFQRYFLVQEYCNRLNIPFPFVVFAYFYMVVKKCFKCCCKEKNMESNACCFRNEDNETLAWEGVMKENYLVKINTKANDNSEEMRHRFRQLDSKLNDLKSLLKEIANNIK

Molecule | maximum open probability of TRPM8 activation (TRPM8 [1]) [%] | single-channel conductance of TRPM8 (TRPM8 [1]; n=3) [pS] | inhibition of TRPM8 (TRPM8 [2])
CC1CCC(C(C)C)C(O)C1 (stereo not drawn) [menthol, reference compound] | ~70 | 58.83±1.85 | 
CDHRRRQARYRRC [S-DeC-1.2, negative control polypeptide, reference compound] |  |  | did not inhibit TRPM8
